This assay deals with MIA PaCa-2 cells. Briefly: AmpliSeq transcriptome (RNAseq) analysis. The assay is classed as cell-based, human. The conditions noted are these: LIF 10 ng/mL + BAR502 10 µM versus LIF, 24 h. On the procedure: MIA PaCa-2 cells were cultured in 6-well tissue culture plate (cell density 1.5 * 10^6/well) in DMEM complete medium. After serum starving, cells were exposed with LIF (10 ng/mL) alone or plus BAR502 (10 µM) or left untreated for 24h. High-quality RNA was extracted from MIA PaCa-2 cells using the PureLink™ RNA Mini Kit (Thermo Fisher Scientific), according to the manufacturer’s instructions. RNA quality and quantity were assessed with the Qubit® RNA HS Assay Kit and a Qubit 3.0 fluorometer followed by agarose gel electrophoresis. Libraries were generated using the Ion AmpliSeq™ Transcriptome Human Gene Expression Core Panel and Chef-Ready Kit (Thermo Fisher Scientific), according to the manufacturer’s instructions. Briefly, 10 ng of RNA was reverse transcribed with SuperScript™ Vilo™ cDNA Synthesis Kit (Thermo Fisher Scientific, Waltham, MA) before library preparation on the Ion Chef™ instrument (Thermo Fisher Scientific, Waltham, MA). The resulting cDNA was amplified to prepare barcoded libraries using the Ion Code™ PCR Plate, and the Ion AmpliSeq™ Transcriptome Human Gene Expression Core Panel (Thermo Fisher Scientific, Waltham, MA), Chef-Ready Kit, according to the manufacturer’s instructions. Barcoded libraries were combined to a final concentration of 100 pM, and used to prepare Template-Positive Ion Sphere™ (Thermo Fisher Scientific, Waltham, MA) Particles to load on Ion 540™ Chips, using the Ion 540™ Kit-Chef (Thermo Fisher Scientific, Waltham, MA). Sequencing was performed on an Ion S5™ Sequencer with Torrent Suite™ Software v6 (Thermo Fisher Scientific). The analyses were performed with a range of fold <−2 and >+2 and a p value < 0.05, using Transcriptome Analysis Console Software (version 4.0.2), certified for AmpliSeq analysis (Thermo-Fisher). The transcriptomic data have been deposited as dataset on Mendeley data repository […].

For the molecule `CC[C@H]1[C@@H](O)C2C3CC[C@H]([C@H](C)CCO)[C@@]3(C)CCC2[C@@]2(C)CC[C@@H](O)C[C@@H]12` (stereo partly shown) [BAR502], the “CCND2 expression Fold Change (FC)” value is 16,13, the “KIF20A expression Fold Change (FC)” value was -17,49, the “RRM2 expression Fold Change (FC)” value is -14,34 and the “SESN2 expression Fold Change (FC)” value is 15,84. Further, the “SLC7A11 expression Fold Change (FC)” value is 35,54, the “TNFRSF1B (TNFR2) expression Fold Change (FC)” value was -11,72 and the “TOP2A expression Fold Change (FC)” value was -9,61.

These data come from paper PMC10043345, “Discovery of BAR502, as potent steroidal antagonist of leukemia inhibitory factor receptor for the treatment of pancreatic adenocarcinoma” (Frontiers in Oncology, 2023).
